Here are results for 10 compounds from patent US9340513B2, “Propenoate derivatives of betulin” (GlaxoSmithKline LLC, priority 2011, dated 2016).

The test relates to HIV-1 (strain IIIB). The test is described as follows: MT4 Cell Antiviral Assay. The note with it: Human immunodeficiency virus 1, 120 h; HIV-1 strain IIIB in MT4 cells, 5 days, Cell Titer-Glo; 50% decrease in HIV-induced cytopathic effect. The test is classed as cell-based. As to the method:
Antiviral HIV activity and compound-induced cytotoxicity were measured in parallel based on a modified protocol of the propidium iodide based procedure in the human T-cell lymphotropic virus transformed cell line MT4. Aliquots of the test compounds were serially diluted in DMSO plated in 96-well plates. Exponentially growing MT4 cells were harvested and pelleted. Cell pellets were resuspended in fresh medium (RPMI 1640, 10% FCS, and gentamycin. Cell aliquots were infected by the addition of HIV-1 (strain IIIB) diluted to give a viral multiplicity of infection of 300×TCID50/million cells. A similar cell aliquot was diluted with medium to provide a mock-infected control. Cell infection was allowed to proceed for 1 hr at 37° C. in a tissue culture incubator with humidified 5% CO2 atmosphere. After the 1 hr incubation the virus/cell suspensions were diluted with fresh medium, and added to each well of the plate containing pre-diluted compound. Plates were then placed in a tissue culture incubator with humidified 5% CO2 for 5 days. […] The plates were analyzed in an automated plate reader for luminescence.assay. The control and standard used was efavirinz tested over a concentration range of 0.001 to 1 μM in every assay. The expected range of IC50 values for efavirinz is 0.1 to 1 nM.
The antiviral effect of a test compound is reported as an IC50, i.e. the inhibitory concentration that would produce a 50% decrease in the HIV-induced cytopathic effect. This effect is measured by the amount of test compound required to restore 50% of the cell growth of HIV-infected MT4 cells, compared to uninfected MT4 cell controls. IC50 was calculated by RoboSage, Automated Curve Fitting Program.
For each assay plate, the results (of wells containing uninfected cells or infected cells with no compound were averaged, respectively. For measurements of compound-induced cytotoxicty, results from wells containing various compound concentrations and uninfected cells were compared to the average of uninfected cells without compound treatment. Percent of cells remaining is determined by the following formula: Percent of cells remaining=(compound-treated uninfected cells/untreated uninfected cells)×100.
A level of percent of cells remaining of 79% or less indicates a significant level of direct compound-induced cytotoxicity for the compound at that concentration. When this condition occurs the results from the compound-treated infected wells at this concentration are not included in the calculation of IC50.
For measurements of compound antiviral activity, results from wells containing various compound concentrations and infected cells are compared to the average of uninfected and infected cells without compound treatment. Percent inhibition of virus is determined by the following formula: Percent inhibition of virus=(1−((ave. untreated uninfected cells−treated infected cells)/(ave. untreated uninfected cells−ave. untreated infected cells)))×100
On to `CC(C)C1=C2[C@H]3CC[C@@H]4[C@@]5(C)CC[C@H](OC(=O)CC(C)(C)C(=O)O)C(C)(C)[C@@H]5CC[C@@]4(C)[C@]3(C)CC[C@@]2(/C=C/C(=O)NC2(c3ccc(Cl)cc3)CC2)CC1=O` [Example 1, 4-(((3aS,5aR,5bR,7aR,9S,11aR,11bR,13aS)-3a-((E)-3-((1-(4-Chlorophenyl)cyclopropyl)amino)-3-oxoprop-1-en-1-yl)-1-isopropyl-5a,5b,8,8,11a-pentamethyl-2-oxo-3,3a,4,5,5a,5b,6,7,7a,8,9,10,11,11a,11b,12,13,13a-octadecahydro-2H-cyclopenta[a]chrysen-9-yl)oxy)-2,2-dimethyl-4-oxobutanoic acid], for which the IC50 was < 10 nM. In the case of `CC(C)C1=C2[C@H]3CC[C@@H]4[C@@]5(C)CC[C@H](OC(=O)CC(C)(C)C(=O)O)C(C)(C)[C@@H]5CC[C@@]4(C)[C@]3(C)CC[C@@]2(/C=C/C(=O)Nc2ccc(Cl)cc2)CC1=O` [Example 2, 4-(((3aS,5aR,5bR,7aR,9S,11aR,11bR,13aS)-3a-((E)-3-((4-Chlorophenyl)amino)-3-oxoprop-1-en-1-yl)-1-isopropyl-5a,5b,8,8,11a-pentamethyl-2-oxo-3,3a,4,5,5a,5b,6,7,7a,8,9,10,11,11a,11b,12,13,13a-octadecahydro-2H-cyclopenta[a]chrysen-9-yl)oxy)-2,2-dimethyl-4-oxobutanoic acid] it was 10 to 250 nM; in that of `CC(C)C1=C2[C@H]3CC[C@@H]4[C@@]5(C)CC[C@H](OC(=O)CC(C)(C)C(=O)O)C(C)(C)[C@@H]5CC[C@@]4(C)[C@]3(C)CC[C@@]2(/C=C/C(=O)N[C@@H](C)c2ccc(Cl)cn2)CC1=O` [Example 3, 4-(((3aS,5aR,5bR,7aR,9S,11aR,11bR,13aS)-3a-((E)-3-(((S)-1-(5-Chloropyridin-2-yl)ethyl)amino)-3-oxoprop-1-en-1-yl)-1-isopropyl-5a,5b,8,8,11a-pentamethyl-2-oxo-3,3a,4,5,5a,5b,6,7,7a,8,9,10,11,11a,1 b,12,13,13a-octadecahydro-2H-cyclopenta[a]chrysen-9-yl)oxy)-2,2-dimethyl-4-oxobutanoic acid], < 10 nM; in that of `CC(C)C1=C2[C@H]3CC[C@@H]4[C@@]5(C)CC[C@H](OC(=O)CC(C)(C)C(=O)O)C(C)(C)[C@@H]5CC[C@@]4(C)[C@]3(C)CC[C@@]2(/C=C/C(=O)N[C@H](C)c2ccc(Cl)cc2)CC1=O` [Example 4, 4-(((3aS,5aR,5bR,7aR,9S,11aR,11bR,13aS)-3a-((E)-3-(((R)-1-(4-Chlorophenyl)ethyl)amino)-3-oxoprop-1-en-1-yl)-1-isopropyl-5a,5b,8,8,11a-pentamethyl-2-oxo-3,3a,4,5,5a,5b,6,7,7a,8,9,10,11,11a,11b,12,13,13a-octadecahydro-2H-cyclopenta[a]chrysen-9-yl)oxy)-2,2-dimethyl-4-oxobutanoic acid], 10 to 250 nM. In the case of `CC(C)C1=C2[C@H]3CC[C@@H]4[C@@]5(C)CC[C@H](OC(=O)CC(C)(C)C(=O)O)C(C)(C)[C@@H]5CC[C@@]4(C)[C@]3(C)CC[C@@]2(/C=C/C(=O)N[C@H](C)c2ccc(Cl)cn2)CC1=O` [Example 5, 4-(((3aS,5aR,5bR,7aR,9S,11aR,11bR,13aS)-3a-((E)-3-(((R)-1-(5-Chloropyridin-2-yl)ethyl)amino)-3-oxoprop-1-en-1-yl)-1-isopropyl-5a,5b,8,8,11a-pentamethyl-2-oxo-3,3a,4,5,5a,5b,6,7,7a,8,9,10,11,11a,1 b,12,13,13a-octadecahydro-2H-cyclopenta[a]chrysen-9-yl)oxy)-2,2-dimethyl-4-oxobutanoic acid] it was < 10 nM; in that of `CC(C)C1=C2[C@H]3CC[C@@H]4[C@@]5(C)CC[C@H](OC(=O)CC(C)(C)C(=O)O)C(C)(C)[C@@H]5CC[C@@]4(C)[C@]3(C)CC[C@@]2(/C=C/C(=O)N[C@@H](C)c2ccc(Cl)cc2)CC1=O` [Example 6, 4-(((3aS,5aR,5bR,7aR,9S,11aR,11bR,13aS)-3a-((E)-3-(((S)-1-(4-Chlorophenyl)ethyl)amino)-3-oxoprop-1-en-1-yl)-1-isopropyl-5a,5b,8,8,11a-pentamethyl-2-oxo-3,3a,4,5,5a,5b,6,7,7a,8,9,10,11,11a,11b,12,13,13a-octadecahydro-2H-cyclopenta[a]chrysen-9-yl)oxy)-2,2-dimethyl-4-oxobutanoic acid], 10 to 250 nM. In the case of `CC(C)C1=C2[C@H]3CC[C@@H]4[C@@]5(C)CC[C@H](OC(=O)CC(C)(C)C(=O)O)C(C)(C)[C@@H]5CC[C@@]4(C)[C@]3(C)CC[C@@]2(/C=C/C(=O)NC2(c3ccc(Cl)cn3)CC2)CC1=O` [Example 7, 4-(((3aS,5aR,5bR,7aR,9S,11aR,11bR,13aS)-3a-((E)-3-((1-(5-Chloropyridin-2-yl)cyclopropyl)amino)-3-oxoprop-1-en-1-yl)-1-isopropyl-5a,5b,8,8,11a-pentamethyl-2-oxo-3,3a,4,5,5a,5b,6,7,7a,8,9,10,11,11a,11b,12,13,13a-octadecahydro-2H-cyclopenta[a]chrysen-9-yl)oxy)-2,2-dimethyl-4-oxobutanoic acid] it was < 10 nM; in that of `CC(C)C1=C2[C@H]3CC[C@@H]4[C@@]5(C)CC[C@H](OC(=O)CC(C)(C)C(=O)O)C(C)(C)[C@@H]5CC[C@@]4(C)[C@]3(C)CC[C@@]2(/C=C/C(=O)N[C@@H](C)c2ccncn2)CC1=O` [Example 8, 4-(((3aS,5aR,5bR,7aR,9S,11aR,11bR,13aS)-1-Isopropyl-5a,5b,8,8,11a-pentamethyl-2-oxo-3a-((E)-3-oxo-3-(((S)-1-(pyrimidin-4-yl)ethyl)amino)prop-1-en-1-yl)-3,3a,4,5,5a,5b,6,7,7a,8,9,10,11,11a,11b,12,13,13a-octadecahydro-2H-cyclopenta[a]chrysen-9-yl)oxy)-2,2-dimethyl-4-oxobutanoic acid], 10 to 250 nM; in that of `CC(C)C1=C2[C@H]3CC[C@@H]4[C@@]5(C)CC[C@H](OC(=O)CC(C)(C)C(=O)O)C(C)(C)[C@@H]5CC[C@@]4(C)[C@]3(C)CC[C@@]2(/C=C/C(=O)N[C@H](C)c2ccncn2)CC1=O` [Example 9, 4-(((3aS,5aR,5bR,7aR,9S,11aR,11bR,13aS)-1-Isopropyl-5a,5b,8,8,11a-pentamethyl-2-oxo-3a-((E)-3-oxo-3-(((R)-1-(pyrimidin-4-yl)ethyl)amino)prop-1-en-1-yl)-3,3a,4,5,5a,5b,6,7,7a,8,9,10,11,11a,11b,12,13,13a-octadecahydro-2H-cyclopenta[a]chrysen-9-yl)oxy)-2,2-dimethyl-4-oxobutanoic acid], 10 to 250 nM.

The compound `CC(C)C1=C2[C@H]3CC[C@@H]4[C@@]5(C)CC[C@H](OC(=O)CC(C)(C)C(=O)O)C(C)(C)[C@@H]5CC[C@@]4(C)[C@]3(C)CC[C@@]2(/C=C/C(=O)N[C@H](C)c2ncccn2)CC1=O` [Example 10, 4-(((3aS,5aR,5bR,7aR,9S,11aR,11bR,13aS)-1-Isopropyl-5a,5b,8,8,11a-pentamethyl-2-oxo-3a-((E)-3-oxo-3-(((R)-1-(pyrimidin-2-yl)ethyl)amino)prop-1-en-1-yl)-3,3a,4,5,5a,5b,6,7,7a,8,9,10,11,11a,11b,12,13,13a-octadecahydro-2H-cyclopenta[a]chrysen-9-yl)oxy)-2,2-dimethyl-4-oxobutanoic acid] came in with an IC50 of 10 to 250 nM.
